| melting point | Compound |
| --- | --- |
| 252 to 253 °C | O=C(O)C[C@H]1CCCC[C@H]1n1nc(-c2c(-c3ccccc3)nn3ccccc23)ccc1=O (relative stereo) [Example 38, cis-3-[2-(2-carboxymethylcyclohexyl)-3-oxo-2,3-dihydropyridazin-6-yl]-2-phenylpyrazolo[1,5-a]pyridine] |
| 214 °C | N#CC1CCCCC1n1nc(-c2c(-c3ccccc3)nn3ccccc23)ccc1=O (stereo not shown) [Example 108, 3-[2-(2-cyanocyclohexyl)-3-oxo-2,3-dihydropyridazin-6-yl]-2-phenylpyrazolo[1,5-a]pyridine] |
| 70 to 72 °C | N#C/C=C1/CCCCC1n1nc(-c2c(-c3ccccc3)nn3ccccc23)ccc1=O (stereo not drawn) [Example 96 (Z)-isomer, (Z)-3-[2-{2-Cyanomethylenecyclohexyl}-3-oxo-2,3-dihydropyridazin-6-yl]-2-phenylpyrazolo[1,5-a]pyridine] |
| 238 to 240 °C | O=c1ccc(-c2c(-c3ccccc3)nn3ccccc23)nn1C1CCCCC1=NO (stereo not shown) (hydrate or solvate) [Example 89, 3-[2-(2-Hydroxyiminocyclohexyl)-3-oxo-2,3-dihydropyridazin-6-yl]-2-phenylpyrazolo[1,5-a]pyridine] |
| 208.5 to 209 °C | O=C(CC1=C(n2nc(-c3c(-c4ccccc4)nn4ccccc34)ccc2=O)CCCC1)N1CCNCC1 [Example 113, 3-[2-{2-(piperazin-1-ylcarbonyl)methyl-1-cyclohexenyl}-3-oxo-2,3-dihydropyridazin-6-yl]-2-phenylpyrazolo[1,5-a]pyridine] |
| 175 to 176 °C | COC(=O)COc1cccc2c1CCC(n1nc(-c3c(-c4ccccc4)nn4ccccc34)ccc1=O)C2=O (stereo not shown) [Example 118, 3-[2-(1-Methoxycarbonylmethoxy-5-oxo-5,6,7,8-tetrahydro-6-naphthyl)-3-oxo-2,3-dihydropyridazin-6-yl]-2-phenylpyrazolo[1,5-a]pyridine] |
| 191 to 195 °C | CCCn1c(-n2nc(-c3c(-c4ccccc4)nn4ccccc34)ccc2=O)cc(=O)n(CC(=O)OC)c1=O [Example 29, 3-[2-(2,4-Dioxo-3-methoxycarbonylmethyl-1-propyl-1,2,3,4-tetrahydropyrimidin-6-yl)-3-oxo-2,3-dihydropyridazin-6-yl]-2-phenylpyrazolo[1,5-a]pyridine] |
| 111 to 113 °C | O=C(CCC1=C(n2nc(-c3c(-c4ccccc4)nn4ccccc34)ccc2=O)CCCC1)OCc1ccccc1 [Example 66, 3-[2-{2-(2-benzyloxycarbonylethyl)-1-cyclohexenyl}-3-oxo-2,3-dihydropyridazin-6-yl]-2-phenylpyrazolo[1,5-a]pyridine] |
| 146 to 150 °C | COc1ccc2c(c1)CC[C@@H](O)[C@@H]2n1nc(-c2c(-c3ccccc3)nn3ccccc23)ccc1=O (relative stereo) [Example 30, trans-3-[2-(6-Hydroxy-2-methoxy-5,6,7,8-tetrahydro-5-naphthyl)-3-oxo-2,3-dihydropyridazin-6-yl]-2-phenylpyrazolo[1,5-a]pyridine] |
| 189 to 190 °C | O=c1ccc(-c2c(-c3ccccc3)nn3ccccc23)nn1C1CCC2(CC1)OCCO2 [Example 21, 3-[2-(4,4-Ethylenedioxycyclohexyl)-3-oxo-2,3-dihydropyridazin-6-yl]-2-phenylpyrazolo[1,5-a]pyridine] |
| 151 to 152 °C | CCOC(=O)C[C@H]1CCCC[C@H]1n1nc(-c2c(-c3ccccc3)nn3ccccc23)ccc1=O (relative stereo) [Example 33(2), cis-3-[2-(2-Ethoxycarbonylmethylcyclohexyl)-3-oxo-2,3-dihydropyridazin-6-yl]-2-phenylpyrazolo[1,5-a]pyridine] |
| 135 to 138 °C | CN(CC(=O)O)C(=O)CC1=C(n2nc(-c3c(-c4ccccc4)nn4ccccc34)ccc2=O)CCCC1 [Example 43, 3-[2-{2-(N-carboxymethyl-N-methylcarbamoyl)methyl-1-cyclohexenyl}-3-oxo-2,3-dihydropyridazin-6-yl]-2-phenylpyrazolo[1,5-a]pyridine] |
| 171 to 172 °C | O=C(O)CC1=C(n2nc(-c3c(-c4ccccc4)nn4ccccc34)ccc2=O)CCCCC1 (hydrate or solvate) [Example 19, 3-[2-(2-carboxymethyl-1-cycloheptenyl)-3-oxo-2,3-dihydropyridazin-6-yl]-2-phenylpyrazolo[1,5-a]-pyridine] |
| 250 to 251 °C | O=C(O)CN1CCC(n2nc(-c3c(-c4ccccc4)nn4ccccc34)ccc2=O)C1=O (stereo not shown) [Example 42, 3-[2-(1-Carboxymethyl-2-oxo-pyrrolidin-3-yl)-3-oxo-2,3-dihydropyridazin-6-yl]-2-phenylpyrazolo[1,5-a]pyridine] |
| 126 to 127 °C | O=C1CCCC(n2nc(-c3c(-c4ccccc4)nn4ccccc34)ccc2=O)C1 (stereo not shown) [Example 102, 3-[2-(3-oxocyclohexyl)-3-oxo-2,3-dihydropyridazin-6-yl]-2-phenylpyrazolo[1,5-a]pyridine] |
| 188 to 190 °C | O=C(O)C=C1CCC(n2nc(-c3c(-c4ccccc4)nn4ccccc34)ccc2=O)CC1 (stereo not shown) [Example 51, 3-[2-(4-Carboxymethylenecyclohexyl)-3-oxo-2,3-dihydropyridazin-6-yl]-2-phenylpyrazolo[1,5-a]pyridine] |
| 155 to 165 °C | O=C(O)[C@H]1CCC(=O)[C@@H](n2nc(-c3c(-c4ccccc4)nn4ccccc34)ccc2=O)C1 (relative stereo) (hydrate or solvate) [Example 17, cis-3-[2-(5-Carboxy-2-oxocyclohexyl)-3-oxo-2,3-dihydropyridazin-6-yl]-2-phenylpyrazolo[1,5-a]pyridine] |
| 186 to 188 °C | O=C(O)[C@@H]1CC[C@H](n2nc(-c3c(-c4ccccc4)nn4ccccc34)ccc2=O)C(=O)C1 (relative stereo) [Example 13, cis-3-[2-(4-carboxy-2-oxocyclohexyl)-3-oxo-2,3-dihydropyridazin-6-yl]-2-phenylpyrazolo[1,5-a]pyridine] |
| 202 to 204 °C | O=C(CC1=C(n2nc(-c3c(-c4ccccc4)nn4ccccc34)ccc2=O)CCCC1)N1CCOCC1 [Example 83, 3-[2-(2-Morpholinocarbonylmethyl-1-cyclohexenyl)-3-oxo-2,3-dihydropyridazin-6-yl]-2-phenylpyrazolo[1,5-a]-pyridine] |
| 174 to 175 °C | N#C/C=C1\CCCCC1n1nc(-c2c(-c3ccccc3)nn3ccccc23)ccc1=O (stereo not drawn) [Example 96 (E)-isomer, (E)-3-[2-{2-Cyanomethylenecyclohexyl}-3-oxo-2,3-dihydropyridazin-6-yl]-2-phenylpyrazolo[1,5-a]pyridine] |
| 160 to 162 °C | CCOC(=O)[C@H]1CCC(=O)[C@@H](n2nc(-c3c(-c4ccccc4)nn4ccccc34)ccc2=O)C1 (relative stereo) [Example 16, cis-3-[2-(5-Ethoxycarbonyl-2-oxocyclohexyl)-3-oxo-2,3-dihydropyridazin-6-yl]-2-phenylpyrazolo[1,5-a]pyridine] |
| 92.5 to 93 °C | O=C(O)CCCNC(=O)CC1=C(n2nc(-c3c(-c4ccccc4)nn4ccccc34)ccc2=O)CCCC1 [Example 46, 3-[2-(2-(N-(3-Carboxypropyl)carbamoyl)methyl-1-cyclohexenyl)-3-oxo-2,3-dihydropyridazin-6-yl]-2-phenylpyrazolo[1,5-a]pyridine] |
| 143 to 145 °C | CCCn1c(=O)cc(-n2nc(-c3c(-c4ccccc4)nn4ccccc34)ccc2=O)n(CC(=O)OC)c1=O [Example 28, 3-[2-(2,4-Dioxo-1-methoxycarbonylmethyl-3-propyl-1,2,3,4-tetrahydropyrimidin-6-yl)-3-oxo-2,3-dihydropyridazin-6-yl]-2-phenylpyrazolo[1,5-a]pyridine] |
| 133 to 134 °C (dec.) | O=C1NCCC1n1nc(-c2c(-c3ccccc3)nn3ccccc23)ccc1=O (stereo not shown) [Example 23, 3-[2-(2-Oxopyrrolidin-3-yl)-3-oxo-2,3-dihydropyridazin-6-yl]-2-phenylpyrazolo[1,5-a]pyridine] |
| 238 to 240 °C | O=C(O)C[C@@H]1CCCC[C@H]1n1nc(-c2c(-c3ccccc3)nn3ccccc23)ccc1=O (relative stereo) [Example 39, trans-3-[2-(2-Carboxymethylcyclohexyl)-3-oxo-2,3-dihydropyridazin-6-yl]-2-phenylpyrazolo[1,5-a]pyridine] |
| 198 to 199 °C | O=c1ccc(-c2c(-c3ccccc3)nn3ccccc23)nn1C1=C(CCO)CCCC1 [Example 105, 3-[2-{2-(2-hydroxyethyl)-1-cyclohexenyl}-3-oxo-2,3-dihydropyridazin-6-yl]-2-phenylpyrazolo[1,5-a]pyridine] |
| 190 to 192 °C | O=C(O)CNC(=O)CC1=C(n2nc(-c3c(-c4ccccc4)nn4ccccc34)ccc2=O)CCCC1 [Example 55, 3-[2-{2-(N-Carboxymethylcarbamoyl)methyl-1-cyclohexenyl}-3-oxo-2,3-dihydropyridazin-6-yl]-2-phenylpyrazolo[1,5-a]pyridine] |
| 105 to 107 °C | COC(=O)C[C@H]1CC[C@H](n2nc(-c3c(-c4ccccc4)nn4ccccc34)ccc2=O)C1 (relative stereo) [Example 32, trans-3-[2-(3-Methoxycarbonylmethylcyclopentyl)-3-oxo-2,3-dihydropyridazin-6-yl]-2-phenylpyrazolo[1,5-a]-pyridine] |
| 195 to 197 °C | O=c1ccc(-c2c(-c3ccccc3)nn3ccccc23)nn1[C@@H]1CCCC[C@@H]1O (relative stereo) [Example 4, cis-3-[2-(2-hydroxycyclohexyl)-3-oxo-2,3-dihydropyridazin-6-yl]-2-phenylpyrazolo[1,5-a]pyridine] |
| 229 to 230 °C | O=c1ccc(-c2c(-c3ccccc3)nn3ccccc23)nn1[C@@H]1CCCC[C@H]1O (relative stereo) [Example 5, trans-3-[2-(2-hydroxycyclohexyl)-3-oxo-2,3-dihydropyridazin-6-yl]-2-phenylpyrazolo[1,5-a]-pyridine] |

| Compound | melting point |
| --- | --- |
| CC(C)(C)OC(=O)CC1=CCCCC1n1nc(-c2c(-c3ccccc3)nn3ccccc23)ccc1=O (stereo not shown) [Example 95(2), 3-[2-{2-(tert-Butoxycarbonylmethyl)-2-cyclohexen-1-yl}-3-oxo-2,3-dihydropyridazin-6-yl]-2-phenylpyrazolo-[1,5-a]pyridine] | 145.5 to 147 °C |

From patent US6355640B1, “Pyrazolopyridine adenosine antagonists” (Fujisawa Pharmaceutical Co., Ltd., priority 1993, dated 2002)
